Holding throughout (assay): DSF 100 kinase selectivity screen;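 also: compound tested at 20 µM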
Type in all cases: binding

Assay [1] deals with T1, ~100 representative kinases (Homo sapiens, UniProt P51813).
T1 construct: Recombinant protein kinase domains with a concentration of 2 μM
T1 sequence (P51813 1-675): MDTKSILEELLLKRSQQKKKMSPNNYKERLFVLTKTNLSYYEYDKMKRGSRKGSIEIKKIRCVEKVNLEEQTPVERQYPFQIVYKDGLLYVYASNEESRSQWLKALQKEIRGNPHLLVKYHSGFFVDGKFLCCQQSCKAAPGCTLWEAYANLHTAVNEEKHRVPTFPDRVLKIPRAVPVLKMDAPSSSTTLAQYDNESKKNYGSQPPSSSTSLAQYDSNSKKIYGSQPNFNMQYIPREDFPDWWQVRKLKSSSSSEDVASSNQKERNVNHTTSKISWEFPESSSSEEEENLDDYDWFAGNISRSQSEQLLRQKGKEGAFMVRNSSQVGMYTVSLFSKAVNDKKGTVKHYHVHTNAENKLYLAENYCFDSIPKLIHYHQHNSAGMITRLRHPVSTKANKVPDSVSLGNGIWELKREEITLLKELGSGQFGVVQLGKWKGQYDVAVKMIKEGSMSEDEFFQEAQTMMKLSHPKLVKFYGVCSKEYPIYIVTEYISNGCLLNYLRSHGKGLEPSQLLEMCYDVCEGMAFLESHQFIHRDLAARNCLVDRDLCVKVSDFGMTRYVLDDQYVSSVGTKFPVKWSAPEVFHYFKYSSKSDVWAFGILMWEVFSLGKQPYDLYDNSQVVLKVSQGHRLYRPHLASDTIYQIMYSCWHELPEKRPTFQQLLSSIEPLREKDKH
The following applies: Protein BMX; average of three replicates. Put shortly: (§1)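 Each kinase domain, at 2 μM, is mixed with 20 μM test compound and SYPRO Orange in Hepes (20 mM, pH 7.5) with 500 mM NaCl. Temperature is then raised at 3°C/min and fluorescence-monitored unfolding yields the melting temperature change, ΔTm in degrees Celsius.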

For assay [2], the target named is T2, ~100 representative kinases (Homo sapiens, UniProt P48730).
T2 construct: Recombinant protein kinase domains with a concentration of 2 μM
The following applies: Protein CSNK1D; average of three replicates. In a few lines: as §1

The target of assay [3] is T3, ~100 representative kinases (Homo sapiens, UniProt Q9Y2H1).
T3 construct: Recombinant protein kinase domains with a concentration of 2 μM
The following applies: Protein STK38L; DSF; average of three replicates. In a few lines:
as §1

The target of assay [4] is T4, ~100 representative kinases (Homo sapiens, UniProt Q9UEE5).
T4 construct: Recombinant protein kinase domains with a concentration of 2 μM
T4 sequence (Q9UEE5 1-414): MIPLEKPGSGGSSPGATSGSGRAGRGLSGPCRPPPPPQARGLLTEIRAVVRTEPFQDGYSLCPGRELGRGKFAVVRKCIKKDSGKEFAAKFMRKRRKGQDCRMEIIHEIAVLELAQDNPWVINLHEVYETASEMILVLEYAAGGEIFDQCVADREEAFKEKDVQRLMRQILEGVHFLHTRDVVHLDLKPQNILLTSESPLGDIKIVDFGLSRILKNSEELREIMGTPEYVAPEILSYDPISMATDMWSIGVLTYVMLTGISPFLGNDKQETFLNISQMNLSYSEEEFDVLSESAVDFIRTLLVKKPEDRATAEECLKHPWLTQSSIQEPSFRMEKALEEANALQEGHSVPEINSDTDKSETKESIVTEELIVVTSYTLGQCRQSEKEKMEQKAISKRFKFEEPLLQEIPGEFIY
The following applies: Protein STK17A; DSF; average of three replicates. Put shortly:
as §1

Assay [5] deals with T5, ~100 representative kinases (Homo sapiens, UniProt Q5VT25).
T5 construct: Recombinant protein kinase domains with a concentration of 2 μM
The following applies: Protein CDC42BPA; average of three replicates. In a few lines:
as §1

In assay [6] the target is T6, ~100 representative kinases (Homo sapiens, UniProt P27448).
T6 construct: Recombinant protein kinase domains with a concentration of 2 μM
The following applies: protein MARK3; average of three replicates. Put shortly:
as §1

Assay [7] deals with T7, ~100 representative kinases (Homo sapiens, UniProt Q9UEW8).
T7 construct: Recombinant protein kinase domains with a concentration of 2 μM
The following applies: Protein STK39; DSF; average of three replicates. In a few lines: as §1

This note sets out measurements from article PMC12136037, “Type II kinase inhibitors that target Parkinson’s disease–associated LRRK2” (Science Advances, 2025).

T6 sequence (P27448 whole entry, the tested form may be a part): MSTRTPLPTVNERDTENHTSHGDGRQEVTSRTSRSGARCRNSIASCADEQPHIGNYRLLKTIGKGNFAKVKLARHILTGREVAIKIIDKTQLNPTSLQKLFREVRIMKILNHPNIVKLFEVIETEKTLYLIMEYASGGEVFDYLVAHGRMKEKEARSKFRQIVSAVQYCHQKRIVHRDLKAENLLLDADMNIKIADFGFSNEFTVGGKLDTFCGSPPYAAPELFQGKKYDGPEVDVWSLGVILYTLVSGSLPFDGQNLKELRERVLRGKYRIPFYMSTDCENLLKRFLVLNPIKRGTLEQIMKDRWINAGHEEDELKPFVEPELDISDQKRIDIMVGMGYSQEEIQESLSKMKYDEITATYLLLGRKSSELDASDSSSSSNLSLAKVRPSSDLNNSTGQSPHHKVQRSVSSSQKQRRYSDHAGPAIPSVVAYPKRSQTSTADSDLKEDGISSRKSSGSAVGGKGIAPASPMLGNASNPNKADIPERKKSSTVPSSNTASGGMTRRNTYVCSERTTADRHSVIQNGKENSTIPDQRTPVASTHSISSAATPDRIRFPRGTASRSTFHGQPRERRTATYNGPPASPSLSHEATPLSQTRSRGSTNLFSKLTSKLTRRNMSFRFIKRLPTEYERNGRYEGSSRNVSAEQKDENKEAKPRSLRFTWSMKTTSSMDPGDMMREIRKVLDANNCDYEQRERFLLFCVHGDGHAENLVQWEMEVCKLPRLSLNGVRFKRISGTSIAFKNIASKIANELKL
T5 sequence (Q5VT25 whole entry, the tested form may be a part): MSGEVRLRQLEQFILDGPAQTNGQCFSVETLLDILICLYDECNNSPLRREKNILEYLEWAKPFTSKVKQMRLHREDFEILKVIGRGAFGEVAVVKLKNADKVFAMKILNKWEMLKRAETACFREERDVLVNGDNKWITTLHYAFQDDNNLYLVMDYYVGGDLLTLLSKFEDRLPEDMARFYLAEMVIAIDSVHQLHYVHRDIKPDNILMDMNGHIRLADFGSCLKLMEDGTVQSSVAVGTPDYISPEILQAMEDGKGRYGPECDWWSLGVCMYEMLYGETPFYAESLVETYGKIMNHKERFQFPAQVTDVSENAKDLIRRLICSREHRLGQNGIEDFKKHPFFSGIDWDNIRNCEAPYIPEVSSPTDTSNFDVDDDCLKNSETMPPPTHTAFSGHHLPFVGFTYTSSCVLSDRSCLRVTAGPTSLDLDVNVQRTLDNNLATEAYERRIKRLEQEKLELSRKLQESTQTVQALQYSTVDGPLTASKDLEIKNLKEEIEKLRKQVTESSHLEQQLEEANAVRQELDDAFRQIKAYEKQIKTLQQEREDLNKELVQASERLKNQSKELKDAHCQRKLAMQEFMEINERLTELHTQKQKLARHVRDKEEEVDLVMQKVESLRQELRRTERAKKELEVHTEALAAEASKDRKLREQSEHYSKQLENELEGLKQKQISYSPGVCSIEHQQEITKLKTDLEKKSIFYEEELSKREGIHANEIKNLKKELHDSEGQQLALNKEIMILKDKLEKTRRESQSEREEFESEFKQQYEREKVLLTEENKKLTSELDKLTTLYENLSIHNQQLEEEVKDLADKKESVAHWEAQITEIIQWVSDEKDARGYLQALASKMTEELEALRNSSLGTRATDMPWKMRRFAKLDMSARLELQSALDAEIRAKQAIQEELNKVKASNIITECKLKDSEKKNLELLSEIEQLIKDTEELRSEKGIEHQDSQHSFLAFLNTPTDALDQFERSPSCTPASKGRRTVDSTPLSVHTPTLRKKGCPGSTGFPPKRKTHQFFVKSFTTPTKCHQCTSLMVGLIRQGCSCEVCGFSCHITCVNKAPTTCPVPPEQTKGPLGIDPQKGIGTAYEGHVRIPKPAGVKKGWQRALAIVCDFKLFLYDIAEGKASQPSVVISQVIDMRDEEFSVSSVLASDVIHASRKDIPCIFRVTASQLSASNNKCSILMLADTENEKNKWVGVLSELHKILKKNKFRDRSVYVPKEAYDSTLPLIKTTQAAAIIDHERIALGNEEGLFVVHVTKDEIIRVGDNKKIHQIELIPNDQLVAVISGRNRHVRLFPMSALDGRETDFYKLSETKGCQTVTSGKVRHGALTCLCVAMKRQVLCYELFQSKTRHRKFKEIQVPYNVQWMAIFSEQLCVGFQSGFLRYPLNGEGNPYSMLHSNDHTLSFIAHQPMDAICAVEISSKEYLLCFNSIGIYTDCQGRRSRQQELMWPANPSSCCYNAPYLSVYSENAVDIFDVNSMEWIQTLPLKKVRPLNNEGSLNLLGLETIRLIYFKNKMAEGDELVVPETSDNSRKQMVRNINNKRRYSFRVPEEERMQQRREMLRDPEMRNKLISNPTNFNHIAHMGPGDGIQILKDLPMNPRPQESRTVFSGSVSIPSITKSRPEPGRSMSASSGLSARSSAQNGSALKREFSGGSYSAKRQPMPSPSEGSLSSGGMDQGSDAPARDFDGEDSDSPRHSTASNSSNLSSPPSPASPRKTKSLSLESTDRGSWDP
T2 sequence (P48730 whole entry, the tested form may be a part): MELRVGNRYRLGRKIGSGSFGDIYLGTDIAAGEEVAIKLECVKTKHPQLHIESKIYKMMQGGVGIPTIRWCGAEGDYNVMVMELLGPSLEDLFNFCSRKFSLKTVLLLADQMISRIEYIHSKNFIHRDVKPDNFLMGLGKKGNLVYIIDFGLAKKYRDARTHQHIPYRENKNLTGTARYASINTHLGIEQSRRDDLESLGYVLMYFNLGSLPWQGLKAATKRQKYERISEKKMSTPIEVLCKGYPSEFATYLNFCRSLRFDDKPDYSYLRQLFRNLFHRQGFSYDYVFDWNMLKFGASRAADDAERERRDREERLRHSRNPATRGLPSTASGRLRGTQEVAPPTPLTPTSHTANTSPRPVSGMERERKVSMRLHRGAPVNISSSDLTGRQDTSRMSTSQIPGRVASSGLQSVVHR
T3 sequence (Q9Y2H1 whole entry, the tested form may be a part): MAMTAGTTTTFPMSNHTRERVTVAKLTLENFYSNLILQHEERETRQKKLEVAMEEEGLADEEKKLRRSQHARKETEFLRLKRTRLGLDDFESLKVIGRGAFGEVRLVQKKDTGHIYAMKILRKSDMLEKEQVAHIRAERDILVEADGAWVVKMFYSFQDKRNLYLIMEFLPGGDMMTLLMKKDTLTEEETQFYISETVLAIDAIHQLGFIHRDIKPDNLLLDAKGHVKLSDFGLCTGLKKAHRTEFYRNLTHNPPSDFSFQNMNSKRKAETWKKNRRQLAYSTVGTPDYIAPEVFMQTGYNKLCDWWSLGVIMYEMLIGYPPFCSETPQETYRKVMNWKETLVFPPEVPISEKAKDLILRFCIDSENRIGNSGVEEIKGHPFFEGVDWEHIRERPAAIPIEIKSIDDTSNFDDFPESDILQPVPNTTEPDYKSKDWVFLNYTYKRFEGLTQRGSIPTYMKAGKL

For `CC(C)(C)c1cccc(NC(=O)C2(C(=O)Nc3cccc(-c4c[nH]c5ncnc(N6CCOCC6)c45)c3)CC2)c1` [Compound 22], the dTm in assay [1] is 1.67 K; in assay [2] it was -2.04 K; in assay [3] it was -2.35 K; in assay [4], -0.64 K; in assay [5] it was -0.53 K; in assay [6], 4.89 K. This compound also yielded a dTm in assay [7] of 3.92 K.
Regarding `O=C(Nc1cccc(-c2c[nH]c3ncnc(N4CCOCC4)c23)c1)C1(C(=O)Nc2ccc(F)cc2F)CC1` [Compound 23], the dTm in assay [1] is 0.22 K; in assay [2], 1.02 K; in assay [3] it was 0.0847 K; in assay [4] it was -0.31 K; in assay [5], -1.22 K; in assay [6] it was 4.65 K. The same compound came in with a dTm in assay [7] of 1.14 K.
On to `Cc1cc(F)ccc1NC(=O)C1(C(=O)Nc2cccc(-c3c[nH]c4ncnc(N5CCOCC5)c34)c2)CC1` [Compound 24], for which the dTm in assay [1] is on record as 0.32 K; in assay [2], 1.47 K; in assay [3] it was -0.0467 K; in assay [4], -0.51 K; in assay [5] it was -1.23 K; in assay [6], 4.53 K. Also, the dTm in assay [7] is 0.71 K.
Consider `O=C(Nc1cccc(-c2c[nH]c3ncnc(N4CCOCC4)c23)c1)C1(C(=O)Nc2cc(Br)c(F)cc2F)CC1` [Compound 25], for which the dTm is 1.31 K in assay [1]; -0.29 K in assay [2]; 0.00 K in assay [3]; -0.61 K in assay [4]; -0.57 K in assay [5]; 3.00 K in assay [6]. In assay [7], this compound displayed a dTm of -0.03 K.
For the compound `O=C(Nc1cccc(-c2c[nH]c3ncnc(N4CCOCC4)c23)c1)C1(C(=O)Nc2ccc(F)c(Br)c2F)CC1` [Compound 26], the dTm is on record as -0.35 K in assay [1]; 0.95 K in assay [2]; -2.16 K in assay [3]; -0.52 K in assay [4]; -0.44 K in assay [5]; 3.94 K in assay [6]. In addition, in assay [7], the dTm worked out at 0.00 K.
Regarding `O=C(Nc1cc(F)cc(Br)c1)C1(C(=O)Nc2cccc(-c3c[nH]c4ncnc(N5CCOCC5)c34)c2)CC1` [Compound 27], the dTm is reported as 0.52 K in assay [1]; -0.55 K in assay [2]; -0.80 K in assay [3]; 1.21 K in assay [4]; 0.59 K in assay [5]; 3.05 K in assay [6]. In assay [7], this compound displayed a dTm of 0.00 K.
As for `CC(C)(C)c1cc(NC(=O)Nc2cccc(-c3c[nH]c4ncnc(N5CCOCC5)c34)c2)n(-c2ccc3ncccc3c2)n1` [Compound 28], the dTm in assay [1] is listed as 2.95 K; in assay [2], 1.22 K; in assay [3], 0.64 K; in assay [4], 4.48 K; in assay [5], -0.65 K; in assay [6], 5.67 K. For the same compound, the dTm in assay [7] was found to be 7.55 K.
Consider `Cc1ccc(-n2nc(C(C)(C)C)cc2NC(=O)Nc2cccc(-c3c[nH]c4ncnc(N5CCOCC5)c34)c2)cc1` [Compound 29], for which the dTm is reported as 2.21 K in assay [1]; 0.95 K in assay [2]; -0.41 K in assay [3]; 3.34 K in assay [4]; -0.10 K in assay [5]; 2.95 K in assay [6]. For the same compound, in assay [7], the dTm is given as 6.45 K.
Take `Cc1ccc(-n2nc(C(C)(C)C)cc2NC(=O)Nc2cccc(-c3c[nH]c4nc(Cl)nc(N5CCOCC5)c34)c2)cc1` [Compound 30]: the dTm in assay [1] is -1.99 K; in assay [2], -2.91 K; in assay [3] it was -1.01 K; in assay [4], 0.28 K; in assay [5], 0.77 K; in assay [6], -0.48 K. The same compound registered a dTm in assay [7] of 1.34 K.
In the case of `CC(=O)N1CCN(c2nc(Cl)nc3[nH]cc(-c4cccc(NC(=O)Nc5cc(C(C)(C)C)nn5-c5ccc(C)cc5)c4)c23)CC1` [Compound 31], the dTm in assay [1] was -1.76 K; in assay [2], -0.88 K; in assay [3], -0.73 K; in assay [4], -0.15 K; in assay [5], 0.50 K; in assay [6], -0.26 K. For the same compound, the dTm in assay [7] came to 1.08 K.
In the case of `CCSc1nc(NC)c2c(-c3cccc(NC(=O)Nc4cc(C(C)(C)C)nn4-c4ccc(C)cc4)c3)c[nH]c2n1` [Compound 32], the dTm in assay [1] is listed as -0.26 K; in assay [2], 0.85 K; in assay [3] it was -0.75 K; in assay [4] it was -0.0646 K; in assay [5], 0.69 K; in assay [6], 0.16 K. The same compound registered a dTm in assay [7] of 0.77 K.
As for `COc1cc(C(=O)N2CCOCC2)c(F)cc1Nc1nc(N(C)C)c2c(Cl)c[nH]c2n1` [Compound 36], the dTm was -0.34 K in assay [1]; 4.03 K in assay [2]; -1.36 K in assay [3]; 0.25 K in assay [4]; -0.93 K in assay [5]; -1.24 K in assay [6]. The compound also had a dTm in assay [7] of 2.35 K.
As for `COc1cc(S(C)(=O)=O)ccc1Nc1nc(N(C)C)c2c(Cl)c[nH]c2n1` [Compound 37], the dTm in assay [1] is given as -0.17 K; in assay [2] it was 2.29 K; in assay [3], -1.21 K; in assay [4], -0.19 K; in assay [5], -0.18 K; in assay [6] it was 0.75 K. Also, in assay [7], the dTm stood at 3.58 K.
As for `COc1cc2c(Oc3ccc(NC(=O)C4(C(=O)Nc5ccc(F)cc5)CC4)cc3F)ccnc2cc1OCCCN1CCOCC1` [Foretinib, reference compound], the dTm is reported as 6.77 K in assay [1]; 0.91 K in assay [2]; 0.47 K in assay [3]; -0.14 K in assay [4]; 0.32 K in assay [5]; 3.96 K in assay [6]. This compound displayed a dTm in assay [7] of 0.70 K.
In the case of `CCNc1nc(Nc2cc(F)c(C(=O)N3CCOCC3)cc2OC)ncc1C(F)(F)F` [GNE-7915], the dTm was -0.0422 K in assay [1]; 1.81 K in assay [2]; 0.75 K in assay [3]; 0.32 K in assay [4]; -0.72 K in assay [5]; 0.65 K in assay [6]. Also, the dTm in assay [7] is on record as 0.28 K.
`C[C@@H]1CN(c2cc(-c3n[nH]c4ccc(OC5(C)CC5)cc34)ncn2)C[C@H](C)O1` [MLi2]: the dTm is on record as -2.53 K in assay [1]; 0.66 K in assay [2]; -0.08 K in assay [3]; -0.26 K in assay [4]; -0.93 K in assay [5]; -1.07 K in assay [6]. Besides, the dTm in assay [7] came to 0.27 K.
Consider `Cn1cc(-c2c[nH]c3ncnc(N4CCOCC4)c23)cc1C#N` [PFE-360], for which the dTm in assay [1] is 0.47 K; in assay [2] it was 0.63 K; in assay [3] it was 0.0435 K; in assay [4], 0.43 K; in assay [5], -1.84 K; in assay [6], 2.70 K. In assay [7], this compound gave a dTm of -0.25 K.
